This note sets out measurements from US20240018125A1, “CYCLIC ISOTHIOUREA DERIVATIVES AS CXCR4 MODULATORS” (ERMIUM THERAPEUTICS, priority 2020, published 2024).

Each structure is given as a SMILES string. Structures can show the parent of a compound that is named as a salt.

The subject of this assay is peripheral blood mononuclear cells (PBMCs) from healthy donors. The assay is described as follows: IFN production by R848-activated PBMCs, quantified with twINNE luciferase reporter cell line. It counts as cell-based, human. The conditions noted are these: Homo sapiens, PBMC; read-out: IC50 of anti-inflammatory activity (IFN production by activated PBMCs). A digest of the protocol:
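Functional IFN was quantified by luciferase output from the twINNE ISRE-reporter line after 24 h on conditioned supernatants. Those supernatants came from human PBMCs (4.10^6/mL) pre-treated with compound and then stimulated for 24 h with 5 μg/mL resiquimod. IC50s were fitted by nonlinear variable-slope regression.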
On the technique in general: Reporter assays use an easily measured gene product as a stand-in for the process of interest.
Consider `Fc1cccc(CC2CN3C(CSC4=NCc5ccccc5N4)=CSC3=N2)c1` (centres unmarked) [Example 121, 3-(((1,4-dihydroquinazolin-2-yl)thio)methyl)-6-(3-fluorobenzyl)-5,6-dihydroimidazo[2,1-b]thiazole dihydrochloride], for which the IC50 is at most 10 µM.

As for `Cc1ccc(CC2CN3C(CSC4=NCc5ccccc5N4)=CSC3=N2)cc1` (centres unmarked) [Example 122, 3-(((1,4-dihydroquinazolin-2-yl)thio)methyl)-6-(4-methylbenzyl)-5,6-dihydroimidazo[2,1-b]thiazole dihydrochloride], the IC50 is at most 10 µM.

Regarding `Clc1ccccc1CC1CN2C(CSC3=NCc4ccccc4N3)=CSC2=N1` (centres unmarked) [Example 123, 6-(2-chlorobenzyl)-3-(((1,4-dihydroquinazolin-2-yl)thio)methyl)-5,6-dihydroimidazo[2,1-b]thiazole dihydrochloride], the IC50 is at most 10 µM. The same measure for `COc1ccc(C[C@@H]2CN3C(CSC4=NCc5ccccc5N4)=CSC3=N2)cc1` [Example 124, (R)-3-(((1,4-dihydroquinazolin-2-yl)thio)methyl)-6-(4-methoxybenzyl)-5,6-dihydroimidazo[2,1-b]thiazole dihydrochloride]: at most 10 µM. With `FC1(F)CCN(CCSC2=NCc3ccccc3N2)C1` [Example 125, 2-((2-(3,3-difluoropyrrolidin-1-yl)ethyl)thio)-1,4-dihydroquinazoline dihydrochloride], the half-inhibitory concentration (IC50) lay in the range of 10 to 32 µM.

As to `C1=C(CSC2=NCc3ccccc3N2)N2CC(CCc3ccccc3)N=C2S1` (centres unmarked) [Example 126, 3-(((1,4-dihydroquinazolin-2-yl)thio)methyl)-6-phenethyl-5,6-dihydroimidazo[2,1-b]thiazole dihydrochloride], the half-maximal inhibitory concentration (IC50) is at most 10 µM.

Regarding `COC1CCN(CCSC2=NCc3ccccc3N2)C1` (centres unmarked) [Example 127, 2-((2-(3-methoxypyrrolidin-1-yl)ethyl)thio)-1,4-dihydroquinazoline dihydrochloride], the IC50 was at most 10 µM. In the case of `c1ccc(C2CCCN2CCSC2=NCc3ccccc3N2)cc1` (centres unmarked) [Example 128, 2-((2-(2-phenylpyrrolidin-1-yl)ethyl)thio)-1,4-dihydroquinazoline dihydrochloride], the IC50 was at most 10 µM. Turning to `CC(CSC1=NCc2ccccc2N1)N1CCCC1` (centres unmarked) [Example 129, 2-((2-(pyrrolidin-1-yl)propyl)thio)-1,4-dihydroquinazoline dihydrochloride], the IC50 was at most 10 µM. For the molecule `CC1CCCN1CCSC1=NCc2ccccc2N1` (centres unmarked) [Example 130, 2-((2-(2-methylpyrrolidin-1-yl)ethyl)thio)-1,4-dihydroquinazoline dihydrochloride], the 50% inhibitory concentration (IC50) is at most 10 µM.

For `CC1(c2ccccc2)CN=C(SCCN2CCCC2)N1` (centres unmarked) [Example 131, 5-methyl-5-phenyl-2-((2-(pyrrolidin-1-yl)ethyl)thio)-4,5-dihydro-1H-imidazole dihydrochloride], the IC50 is 10 to 32 µM.

For `FC1(F)CC12CCN(CCSC1=NCc3ccccc3N1)C2` (centres unmarked) [Example 132, 2-((2-(1,1-difluoro-5-azaspiro[2.4]heptan-5-yl)ethyl)thio)-3,4-dihydroquinazoline], the 50% inhibitory concentration (IC50) is 10 to 32 µM. The same measure for `c1ccc2c(c1)CN=C(SCCN1[C@@H]3CCC[C@H]1CC3)N2` [Example 133, 2-((2-((1R,5S)-8-azabicyclo[3.2.1]octan-8-yl)ethyl)thio)-3,4-dihydroquinazoline dihydrochloride]: at most 10 µM; for `Ic1cc2c(c(I)c1I)NC(SCCN1CCCC1)=NC2` [Example 134, 6,7,8-triiodo-2-((2-(pyrrolidin-1-yl)ethyl)thio)-1,4-dihydroquinazoline dihydrochloride]: at most 10 µM; for `O=C1CCCN1CCSC1=NCc2ccccc2N1` [Example 135, 1-(2-((1,4-dihydroquinazolin-2-yl)thio)ethyl)pyrrolidin-2-one hydrochloride]: over 32 µM.

Regarding `c1ccc2c(c1)CN=C(SCCCCN1CCCC1)N2` [Example 137, 2-((4-(pyrrolidin-1-yl)butyl)thio)-1,4-dihydroquinazoline dihydrochloride], the IC50 is 10 to 32 µM.

In the case of `CC1CCN(CCSC2=NCc3ccccc3N2)C1` (centres unmarked) [Example 138, 2-((2-(3-methylpyrrolidin-1-yl)ethyl)thio)-1,4-dihydroquinazoline dihydrochloride], the IC50 was at most 10 µM. `c1ccc(C2CCN(CCSC3=NCc4ccccc4N3)C2)cc1` (centres unmarked) [Example 140, 2-((2-(3-phenylpyrrolidin-1-yl)ethyl)thio)-1,4-dihydroquinazoline dihydrochloride]: the concentration for half-maximal inhibition (IC50) is at most 10 µM. `c1ccc2c(c1)CN=C(SC1CCC[C@H]1N1CCCC1)N2` (stereo partly drawn) [Example 141, 2-(((2R)-2-(pyrrolidin-1-yl)cyclopentyl)thio)-1,4-dihydroquinazoline dihydrochloride]: the IC50 was in the range of 10 to 32 µM. With `c1ccc2c(c1)CN=C(SCCN1CCC3(CCCC3)C1)N2` [Example 142, 2-((2-(2-azaspiro[4.4]nonan-2-yl)ethyl)thio)-1,4-dihydroquinazoline dihydrochloride], the IC50 was at most 10 µM. With `c1ccc(COC2CCN(CCSC3=NCc4ccccc4N3)C2)cc1` (centres unmarked) [Example 143, 2-((2-(3-(benzyloxy)pyrrolidin-1-yl)ethyl)thio)-1,4-dihydroquinazoline dihydrochloride], the half-inhibitory concentration (IC50) is at most 10 µM. The value for `O=C(O)C1CCN(CCSC2=NCc3ccccc3N2)C1` (centres unmarked) [Example 144, 1-(2-((1,4-dihydroquinazolin-2-yl)thio)ethyl)pyrrolidine-3-carboxylic acid dihydrochloride] was over 32 µM; that for `CN1CCC(CCSC2=NCc3ccccc3N2)C1` (centres unmarked) [Example 145, 2-((2-(1-methylpyrrolidin-3-yl)ethyl)thio)-1,4-dihydroquinazoline dihydrochloride] was 10 to 32 µM. Turning to `O=C(CCCSC1=NCc2ccccc2N1)N1CCCC1` [Example 147, 4-((1,4-dihydroquinazolin-2-yl)thio)-1-(pyrrolidin-1-yl)butan-1-one hydrochloride], the IC50 is over 32 µM. For the molecule `c1ccc2c(c1)CN=C(SC1CCCC[C@H]1N1CCCC1)N2` (stereo partly drawn) [Example 148, 2-(((2R)-2-(pyrrolidin-1-yl)cyclohexyl)thio)-1,4-dihydroquinazoline dihydrochloride], the IC50 was at most 10 µM.

On to `Fc1cccc2c1CN=C(SCCCCN1CCCC1)N2` [Example 149, 5-fluoro-2-((4-(pyrrolidin-1-yl)butyl)thio)-1,4-dihydroquinazoline dihydrochloride], for which the IC50 is at most 10 µM. `Clc1ccc2c(c1)NC(SCCCCN1CCCC1)=NC2` [Example 150, 7-chloro-2-((4-(pyrrolidin-1-yl)butyl)thio)-1,4-dihydroquinazoline dihydrochloride]: the IC50 is at most 10 µM. The same measure for `Fc1ccc2c(c1)NC(SCCCCN1CCCC1)=NC2` [Example 151, 7-fluoro-2-((4-(pyrrolidin-1-yl)butyl)thio)-1,4-dihydroquinazoline dihydrochloride]: at most 10 µM. On to `Fc1ccc2c(c1)CN=C(SCCCCN1CCCC1)N2` [Example 152, 6-fluoro-2-((4-(pyrrolidin-1-yl)butyl)thio)-1,4-dihydroquinazoline dihydrochloride], for which the concentration for half-maximal inhibition (IC50) lay in the range of 10 to 32 µM.

Turning to `Clc1cccc2c1NC(SCCCCN1CCCC1)=NC2` [Example 153, 8-chloro-2-((4-(pyrrolidin-1-yl)butyl)thio)-1,4-dihydroquinazoline dihydrochloride], the concentration for half-maximal inhibition (IC50) was at most 10 µM.

In the case of `c1ccc(CC2CCN(CCSC3=NCc4ccccc4N3)C2)cc1` (centres unmarked) [Example 154, 2-((2-(3-benzylpyrrolidin-1-yl)ethyl)thio)-1,4-dihydroquinazoline dihydrochloride], the IC50 was over 32 µM. In the case of `c1ccc2c(c1)CN=C(SCCN1CCOCC1)N2` [Example 155, 4-(2-((1,4-dihydroquinazolin-2-yl)thio)ethyl)morpholine dihydrochloride], the half-maximal inhibitory concentration (IC50) was over 32 µM. Turning to `F[C@H]1CCN(CCSC2=NCc3ccccc3N2)C1` [Example 156, (S)-2-((2-(3-fluoropyrrolidin-1-yl)ethyl)thio)-1,4-dihydroquinazoline dihydrochloride], the half-maximal inhibitory concentration (IC50) fell in the range of 10 to 32 µM. Consider `F[C@@H]1CCN(CCSC2=NCc3ccccc3N2)C1` [Example 157, (R)-2-((2-(3-fluoropyrrolidin-1-yl)ethyl)thio)-1,4-dihydroquinazoline dihydrochloride], for which the 50% inhibitory concentration (IC50) fell in the range of 10 to 32 µM. With `CN1CCCC1CCSC1=NCc2cc(Cl)ccc2N1` (centres unmarked) [Example 158, 6-chloro-2-((2-(1-methylpyrrolidin-2-yl)ethyl)thio)-1,4-dihydroquinazoline dihydrochloride], the IC50 was at most 10 µM.

Take `c1ccc2c(c1)CCN=C(SCCCCN1CCCC1)N2` [Example 159, 2-((4-(pyrrolidin-1-yl)butyl)thio)-4,5-dihydro-1H-benzo[d][1,3]diazepine dihydrochloride]: the IC50 lay within 10 to 32 µM.

As for `CC1(C)N=C(SCCCCN2CCCC2)Nc2ccccc21` [Example 160, 4,4-dimethyl-2-((4-(pyrrolidin-1-yl)butyl)thio)-1,4-dihydroquinazoline dihydrochloride], the IC50 was over 32 µM. As to `Clc1ccc2c(c1)CN=C(SCCCN1CCCC1)N2` [Example 161, 6-chloro-2-((3-(pyrrolidin-1-yl)propyl)thio)-1,4-dihydroquinazoline dihydrochloride], the concentration for half-maximal inhibition (IC50) was at most 10 µM. The same measure for `CC(CCCSC1=NCc2cc(Cl)ccc2N1)N1CCCC1` (centres unmarked) [Example 162, 6-chloro-2-((4-(pyrrolidin-1-yl)pentyl)thio)-1,4-dihydroquinazoline dihydrochloride]: at most 10 µM; for `Brc1ccc2c(c1)CN=C(SCCCCN1CCCC1)N2` [Example 163, 6-bromo-2-((4-(pyrrolidin-1-yl)butyl)thio)-1,4-dihydroquinazoline dihydrochloride]: at most 10 µM. Regarding `Clc1ccc2c(c1)CN=C(SCCCCN1CCCCC1)N2` [Example 164, 6-chloro-2-((4-(piperidin-1-yl)butyl)thio)-1,4-dihydroquinazoline dihydrochloride], the concentration for half-maximal inhibition (IC50) is at most 10 µM.

One may read the IC50 as the midpoint of a concentration-inhibition curve.
